Consider 36 molecules from article PMC6753678, “Fueling Open Innovation for Malaria Transmission-Blocking Drugs: Hundreds of Molecules Targeting Early Parasite Mosquito Stages” (Frontiers in Microbiology, 2019).

Series [1] relates to HepG2 cells. Kind of series: HepG2 cytotoxicity assay. As to conditions: HepG2 cytotoxicity unified across screens; >25 set to 25.00. In a few lines:
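Percent inhibition derived from fluorescent viability readout, normalised to DMSO (negative) and 50 μM doxorubicin (positive). Compound incubation lasted 48 h at 37°C, 5% CO2, with 2,500 HepG2 cells/well in MEM plus 10% FBS and 1% NEAA.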

Series [2] relates to P. falciparum late stage (stages IV-V) gametocytes. Further details: method as in Almela et al 2016. The following applies: P. falciparum late stage gametocyte ATP assay, TCAMS screen; ref Almela et al 2016; read-out: Pf GCT ATP IC50; cited from earlier work.
Series [3] has the same test system. Nature of the series: P. falciparum late stage gametocyte ATP depletion assay (Pf GC-ATP). As to conditions: 1: YES; 0: NO; >10-fold selectivity over cytotoxicity.

Usually IC50 stands for the point on the concentration scale where inhibition reaches its midpoint.

As to `COc1ccc(CNCc2ccc(F)cc2)cc1-c1ccc(S(=O)(=O)NCCN2CCCC2)cc1.O=C(O)C(F)(F)F` [TCMDC-132294], in series [1], the Unified cytotox is on record as 6.50 µM. The IC50 in series [2] is 1.21 µM. For the same molecule, the “Is compound selective in assay? Pf GC-ATP active?” value (“Is compound selective” for short) in series [3] is 0 (0: NO).
As for `O=C(Nc1ccc(Oc2ccccc2)cc1)N(CCN1CCCC1)Cc1ccc(-c2ccc(CN3CCNCC3)cc2)cc1.O=C(O)C(F)(F)F` [TCMDC-139652], in series [1], the Unified cytotox is listed as 7.08 µM. The IC50 in series [2] was 1.02 µM. Further, the “Is compound selective” value in series [3] is listed as 0 (0: NO).
Turning to `COc1ccc2c(c1CNCCCCCCNCc1c(OC)ccc3c1CCCC3)CCCC2` [TCMDC-137817], the Unified cytotox in series [1] turned out to be 3.83 µM. The IC50 in series [2] is 0.42 µM. Further, the “Is compound selective” value in series [3] is 0 (0: NO).
As for `CCn1c(-c2nonc2N)nc2c(-c3cccc(NC(=O)Nc4ccccc4OC)c3)ncc(OCCCN)c21.O=C(O)C(F)(F)F` [TCMDC-136190], in series [1], the Unified cytotox was 5.90 µM. Moreover, the IC50 in series [2] was 0.44 µM. In addition, in series [3], the “Is compound selective” value is on record as 1 (1: YES).
`CN1CCC(C(=O)N(Cc2ccc(-c3ccc(CNCCc4ccccc4)cn3)cc2)C2CCN(Cc3ccccc3)CC2)CC1.O=C(O)C(F)(F)F` [TCMDC-141552] returned a Unified cytotox in series [1] of 9.27 µM. Further, the 50% inhibitory concentration (IC50) in series [2] was 0.9 µM. Moreover, the “Is compound selective” value in series [3] is given as 1 (1: YES).
Turning to `Cl.c1ccc2c(c1)cc(CNCCCN1CCN(CCCNCc3cc4ccccc4c4ccccc34)CC1)c1ccccc12` [TCMDC-137914], in series [1], the Unified cytotox amounted to 13.70 µM. Further, the half-inhibitory concentration (IC50) in series [2] was 1.11 µM. The “Is compound selective” value in series [3] is on record as 1 (1: YES).
In turn, `CC(C)CC(=O)N(Cc1ccc(-c2ccc(CNC3Cc4ccccc4C3)cc2)cc1)C1CCNCC1.O=C(O)C(F)(F)F` [TCMDC-141449] came in with a Unified cytotox in series [1] of 6.20 µM. For the same molecule, the concentration for half-maximal inhibition (IC50) in series [2] was 0.63 µM. For the same molecule, the “Is compound selective” value in series [3] is 0 (0: NO).
The molecule `CCn1c(-c2nonc2N)nc2c(-c3cccc(NC(=O)Nc4cccc(C#N)c4)c3)ncc(OCCCN)c21.O=C(O)C(F)(F)F` [TCMDC-136195] registered a Unified cytotox in series [1] of 24.70 µM. Further, the IC50 in series [2] was 3.51 µM. Also, the “Is compound selective” value in series [3] is 0 (0: NO).
In the case of `Cc1cc(NCCc2ccccc2)nc(NC(=N)Nc2ccccc2Cl)n1` [TCMDC-138370], the Unified cytotox in series [1] was 13.60 µM. For the same molecule, in series [2], the concentration for half-maximal inhibition (IC50) is 4.87 µM. In addition, the “Is compound selective” value in series [3] is reported as 0 (0: NO).
Consider `Br.C=CCNC(CCCCC)c1ccc(OCCOc2ccc(C(CCCCC)NCC=C)cc2)cc1` (stereo not drawn) [TCMDC-137483], for which, in series [1], the Unified cytotox was 5.80 µM. Moreover, in series [2], the IC50 was 0.91 µM. Moreover, the “Is compound selective” value in series [3] is reported as 0 (0: NO).
`CN(C)CCN(Cc1ccccc1-c1ccc(CNCCc2ccccc2)cc1)C(=O)c1ccccc1.O=C(O)C(F)(F)F` [TCMDC-140532]: the Unified cytotox in series [1] is given as 7.54 µM. Besides, the IC50 in series [2] was 0.78 µM. Besides, in series [3], the “Is compound selective” value was 0 (0: NO).
For the molecule `O=C(C1CC1c1ccccc1)N(Cc1ccc(-c2ccc(CNCCc3ccccc3)cc2)cc1)C1CCNCC1.O=C(O)C(F)(F)F` (stereo not drawn) [TCMDC-141443], the Unified cytotox in series [1] amounted to 6.70 µM. Further, in series [2], the half-inhibitory concentration (IC50) is 0.39 µM. Also, in series [3], the “Is compound selective” value was 1 (1: YES).
In series [1], `CC(C)(C)OC(=O)NCc1ccc(Nc2nnc(-c3ccc(OCC(=O)NCc4ccc(C(C)(C)C)cc4)c([N+](=O)[O-])c3)o2)cc1` [TCMDC-134991] yielded a Unified cytotox of 3.15 µM. In addition, in series [2], the IC50 is 0.7 µM. The “Is compound selective” value in series [3] is listed as 0 (0: NO).
In series [1], `CCc1c(CCNCCCCCCNCCc2ccc(Br)cc2)ccc(OC)c1OC.Cl` [TCMDC-132045] showed a Unified cytotox of 3.20 µM. The IC50 in series [2] was 0.22 µM. In series [3], the “Is compound selective” value is reported as 1 (1: YES).
As to `CC(C)CNCc1ccc(-c2cccc(CN(C(=O)NC3CCCCC3)C3CCN(Cc4ccccc4)CC3)c2)cc1.O=C(O)C(F)(F)F` [TCMDC-140628], the Unified cytotox in series [1] amounted to 1.81 µM. Also, in series [2], the IC50 is 1.66 µM. Moreover, in series [3], the “Is compound selective” value is 0 (0: NO).
In series [1], `Fc1ccc2[nH]c(-c3ccc(-c4ccc(CN5CCC(CCN6CCCCC6)CC5)cc4)s3)nc2c1.O=C(O)C(F)(F)F` [TCMDC-133932] gave a Unified cytotox of 3.79 µM. The IC50 in series [2] was 0.14 µM. In addition, the “Is compound selective” value in series [3] is 1 (1: YES).
In series [1], `Nc1c2ccccc2nc2ccc(-c3ccccc3)cc12` [TCMDC-132030] yielded a Unified cytotox of 3.30 µM. For the same molecule, the IC50 in series [2] was 0.49 µM. Moreover, the “Is compound selective” value in series [3] was 0 (0: NO).
For the molecule `CCN(CC)CCCNc1nccc(N2CCc3ncnc(Nc4ccc(OCc5cccc(F)c5)c(Cl)c4)c3C2)n1` [TCMDC-135406], the Unified cytotox in series [1] is reported as 5.58 µM. In series [2], the half-inhibitory concentration (IC50) is 0.72 µM. The “Is compound selective” value in series [3] was 0 (0: NO).
On to `Cc1ccc2nc(C)cc(N/N=C/c3ccc([N+](=O)[O-])cc3)c2c1` [TCMDC-142070], for which the Unified cytotox in series [1] was 0.19 µM. Besides, in series [2], the IC50 is 9.41 µM. The “Is compound selective” value in series [3] was 0 (0: NO).
For `CC(C)CNCc1ccc(-c2ccc(CN(CCCN3CCN(C)CC3)C(=O)CCC3CCCC3)cc2)cc1.O=C(O)C(F)(F)F` [TCMDC-140559], the Unified cytotox in series [1] is on record as 5.39 µM. The IC50 in series [2] was 0.54 µM. The “Is compound selective” value in series [3] was 0 (0: NO).
`CCCCCCCN1CC[C@@H](CCCc2ccnc3ccc(OCCC4CCNCC4)cc23)[C@@H](CC)C1.Cl` [TCMDC-139819] displayed a Unified cytotox in series [1] of 4.50 µM. Besides, the concentration for half-maximal inhibition (IC50) in series [2] was 0.42 µM. Besides, the “Is compound selective” value in series [3] is listed as 1 (1: YES).
`CN1CCN(CCCN(Cc2cccc(-c3cccc(CNC4CCCC4)c3)c2)C(=O)CCC2CCCC2)CC1.O=C(O)C(F)(F)F` [TCMDC-140555]: the Unified cytotox in series [1] is listed as 7.50 µM. For the same molecule, in series [2], the concentration for half-maximal inhibition (IC50) is 0.81 µM. For the same molecule, in series [3], the “Is compound selective” value is reported as 0 (0: NO).
In series [1], `O=C(Nc1cccc(Oc2ccccc2)c1)N[C@H]1CCN(Cc2ccc(OCCCN3CCCCC3)cc2)C1` [TCMDC-141785] had a Unified cytotox of 3.52 µM. Also, in series [2], the IC50 is 1.13 µM. In series [3], the “Is compound selective” value was 0 (0: NO).
On to `CN(CCCNCc1cccc2ccccc12)CCCNCc1cccc2ccccc12.Cl` [TCMDC-137905], for which the Unified cytotox in series [1] turned out to be 5.72 µM. Moreover, the concentration for half-maximal inhibition (IC50) in series [2] is 0.23 µM. Besides, the “Is compound selective” value in series [3] was 1 (1: YES).
`CCN(CC)CCN(Cc1ccc(-c2ccc(C(F)(F)F)cc2)cc1)C(=O)c1ccc(-c2ccc(NC(=O)OC)cc2C)cc1` [TCMDC-141558] displayed a Unified cytotox in series [1] of 5.40 µM. Moreover, the 50% inhibitory concentration (IC50) in series [2] is 3.71 µM. Besides, the “Is compound selective” value in series [3] is 0 (0: NO).
`Cl.NCCCOc1cnc(-c2ccccc2)c2nc(-c3nonc3N)n(CCc3ccccc3)c12` [TCMDC-136216]: in series [1], the Unified cytotox is 5.61 µM. Further, the IC50 in series [2] is 1.4 µM. In addition, the “Is compound selective” value in series [3] is 0 (0: NO).
The molecule `O=C(Nc1ccc(Cl)c(Cl)c1)Nc1ccccc1N1CCNCC1.O=C(O)C(F)(F)F` [TCMDC-133727] displayed a Unified cytotox in series [1] of 11.20 µM. Also, the IC50 in series [2] was 7.42 µM. Moreover, in series [3], the “Is compound selective” value is given as 0 (0: NO).
For `Fc1ccc2[nH]c(-c3cccc(-c4cccc(CNCCN5CCNCC5)c4)c3)nc2c1.O=C(O)C(F)(F)F` [TCMDC-132860], the Unified cytotox in series [1] is listed as 19.63 µM. For the same molecule, in series [2], the IC50 was 0.74 µM. In addition, in series [3], the “Is compound selective” value is 1 (1: YES).
Consider `CN1CCN(CC2(Nc3nccc(NCCc4cn(C)c5ccccc45)n3)CCCCC2)CC1` [TCMDC-135122], for which the Unified cytotox in series [1] is 6.94 µM. In series [2], the IC50 is 0.7 µM. Also, the “Is compound selective” value in series [3] is reported as 0 (0: NO).
For `Cc1cccc2nc(-c3cccc(-c4cccc(CNCCN5CCNCC5)c4)c3)[nH]c12.O=C(O)C(F)(F)F` [TCMDC-132873], in series [1], the Unified cytotox came to 7.76 µM. Further, the half-inhibitory concentration (IC50) in series [2] was 0.5 µM. Moreover, the “Is compound selective” value in series [3] is 1 (1: YES).
Consider `NCc1ccc(CNCc2cccc(-c3ccc(-c4nc5ccccc5[nH]4)cc3)c2)cc1.O=C(O)C(F)(F)F` [TCMDC-132815], for which the Unified cytotox in series [1] stood at 21.82 µM. In series [2], the IC50 was 0.48 µM. Further, in series [3], the “Is compound selective” value is 1 (1: YES).
As to `CCCCCCCN1CC[C@@H](CCCc2ccnc3ccc(OC)cc23)[C@@H](CCN)C1.O=C(O)C(=O)O` [TCMDC-139278], the Unified cytotox in series [1] worked out at 2.98 µM. Besides, the half-maximal inhibitory concentration (IC50) in series [2] is 0.27 µM. In addition, the “Is compound selective” value in series [3] was 1 (1: YES).
Turning to `CC(C)CNCc1cccc(-c2cccc(CN(CCCN3CCN(C)CC3)C(=O)/C=C/c3ccccc3)c2)c1.O=C(O)C(F)(F)F` [TCMDC-140541], the Unified cytotox in series [1] was found to be 7.47 µM. Besides, in series [2], the IC50 is 0.56 µM. The “Is compound selective” value in series [3] was 1 (1: YES).
As for `COc1ccc2nc3cc(Cl)ccc3c(NCCN3CCN(C)CC3)c2c1` [TCMDC-137476], the Unified cytotox in series [1] is 19.33 µM. In addition, in series [2], the 50% inhibitory concentration (IC50) is 1.88 µM. Also, in series [3], the “Is compound selective” value was 1 (1: YES).
`CN1CCN(c2nsc3ccc(-c4ccc(NC(=O)Nc5cc(C(F)(F)F)ccc5F)cc4)cc23)CC1.O=C(O)C(F)(F)F` [TCMDC-133435] came in with a Unified cytotox in series [1] of 6.40 µM. The half-maximal inhibitory concentration (IC50) in series [2] is 7.52 µM. In addition, the “Is compound selective” value in series [3] is recorded as 0 (0: NO).
In series [1], `FC(F)c1nc2ccccc2n1-c1nc(N2CCOCC2)nc(N2CCOCC2)n1` [TCMDC-137004] displayed a Unified cytotox of 1.58 µM. In series [2], the half-maximal inhibitory concentration (IC50) is 5.44 µM. Besides, the “Is compound selective” value in series [3] is given as 0 (0: NO).
